According to ChEMBL document CHEMBL5584310, “Phenanthrenes from Juncus articulatus with Antibacterial and Biofilm Formation Inhibitory Activity” (J Nat Prod, 2024):
Converted amounts (≈) assume the structure as drawn.

Legend:
Staphylococcus aureus [1] = assay: Antibacterial activity against methicillin-susceptible Staphylococcus aureus ATCC 6538 assessed as inhibition of bacterial growth incubated for 16 hrs; type: functional
Staphylococcus aureus [2] = assay: Antibiofilm activity against methicillin-susceptible Staphylococcus aureus ATCC 6538 assessed as inhibition of biofilm formation incubated for 24 hrs by crystal violet staining based microplate reader assay; type: functional
Staphylococcus aureus [3] = assay: Antibiofilm activity against methicillin-susceptible Staphylococcus aureus ATCC 6538 assessed as biofilm eradication incubated for 24 hrs by crystal violet staining based microplate reader assay; type: functional
Staphylococcus aureus [4] = assay: Antibacterial activity against methicillin-resistant Staphylococcus aureus ATCC 33592 assessed as inhibition of bacterial growth incubated for 16 hrs; type: functional
Pseudomonas aeruginosa = assay: Antibacterial activity against Pseudomonas aeruginosa PAO1 assessed as inhibition of bacterial growth incubated for 16 hrs; type: functional
Escherichia coli = assay: Antibacterial activity against Escherichia coli ATCC 25922 assessed as inhibition of bacterial growth incubated for 16 hrs; type: functional
Staphylococcus aureus [5] = assay: Antibiofilm activity against methicillin-resistant Staphylococcus aureus ATCC 33592 assessed as inhibition of biofilm formation incubated for 24 hrs by crystal violet staining based microplate reader assay; type: functional
SiHa = assay: Antiproliferative activity against human SiHa cells assessed as inhibition of cell growth incubated for 72 hrs by MTT assay; type: functional, cell-based
Staphylococcus aureus [6] = assay: Antibiofilm activity against methicillin-resistant Staphylococcus aureus ATCC 33592 assessed as biofilm eradication incubated for 24 hrs by crystal violet staining based microplate reader assay; type: functional
COLO 205 = assay: Antiproliferative activity against human COLO 205 cells assessed as inhibition of cell growth incubated for 72 hrs by MTT assay; type: functional, cell-based; settings: COLO 205, 72 h
HeLa = assay: Antiproliferative activity against human HeLa cells assessed as inhibition of cell growth incubated for 72 hrs by MTT assay; type: functional, cell-based
COLO 320 = assay: Antiproliferative activity against human COLO 320 cells assessed as inhibition of cell growth incubated for 72 hrs by MTT assay; type: functional, cell-based; settings: COLO 320, 72 h

| SMILES | MIC (Staphylococcus aureus [1]) [µM] | MBIC (Staphylococcus aureus [2]) [µM] | MBEC (Staphylococcus aureus [3]) [µM] | MIC (Staphylococcus aureus [4]) [µM] | MIC (Pseudomonas aeruginosa) [µM] | MIC (Escherichia coli) [µM] | MBIC (Staphylococcus aureus [5]) [µM] | IC50 (SiHa) [µM] | MBEC (Staphylococcus aureus [6]) [µM] | IC50 (COLO 205) [µM] | IC50 (HeLa) [µM] | IC50 (COLO 320) [µM] |
| --- | --- | --- | --- | --- | --- | --- | --- | --- | --- | --- | --- | --- |
| O=C(O)c1cn(C2CC2)c2cc(N3CCNCC3)c(F)cc2c1=O [CIPROFLOXACIN] | 0.37 (≈ 0.123 µg/mL) | 0.75 | >386.7 | 0.37 (≈ 0.123 µg/mL) | 0.37 (≈ 0.123 µg/mL) | – | – | – | – | – | – | – |
| C=Cc1c(C)c(O)cc2c1ccc1c(C)c(Oc3c(O)c(C)c(C=C)c4ccc5c(C)c(O)ccc5c34)ccc12 | 122 (≈ 64 µg/mL) | – | – | 122 (≈ 64 µg/mL) | > 243 | > 243 | – | – | – | – | – | – |
| C=Cc1c(C)c(O)cc2c1ccc1c(C)c(O)ccc12 | 15.1 (≈ 3.99 µg/mL) | 15.1 | >484 | 15.1 (≈ 3.99 µg/mL) | > 484 | > 484 | – | – | – | – | – | – |
| C#Cc1c(CO)c(O)cc2c1ccc1c(C)c(O)ccc12 | 57.5 (≈ 16 µg/mL) | 115 | – | 115 (≈ 32 µg/mL) | > 230 | > 230 | 114.3 | – | – | – | – | – |
| C#Cc1c(C)c(O)cc2c1CCc1c-2ccc(O)c1C | 121 (≈ 32.1 µg/mL) | – | – | 121 (≈ 32.1 µg/mL) | > 485 | > 485 | – | 25.3 | – | – | – | – |
| C=Cc1c(COC)c(O)cc2c1ccc1c(C)c(O)ccc12 | 218 (≈ 64 µg/mL) | – | – | 218 (≈ 64 µg/mL) | > 435 | > 435 | – | – | – | – | – | – |
| CN[C@H](CC(C)C)C(=O)N[C@H]1C(=O)N[C@@H](CC(N)=O)C(=O)N[C@H]2C(=O)N[C@H]3C(=O)N[C@H](C(=O)N[C@H](C(=O)O)c4cc(O)cc(O)c4-c4cc3ccc4O)[C@H](O)c3ccc(c(Cl)c3)Oc3cc2cc(c3O[C@@H]2O[C@H](CO)[C@@H](O)[C@H](O)[C@H]2O[C@H]2C[C@](C)(N)[C@H](O)[C@H](C)O2)Oc2ccc(cc2Cl)[C@H]1O [VANCOMYCIN] | – | – | >88.3 | 1.38 (≈ 2 µg/mL) | 1770 (≈ 2560 µg/mL) | 177 (≈ 256 µg/mL) | 1.38 | – | >88.3 | – | – | – |
| C=Cc1c(C)c(O)cc2c1CCc1c-2ccc(O)c1C | 481 (≈ 128 µg/mL) | – | – | 481 (≈ 128 µg/mL) | > 481 | > 481 | – | – | – | – | – | – |
| C=Cc1c(CO)c(O)cc2c1ccc1c(C)c(O)ccc12 | 114 (≈ 32 µg/mL) | 114.3 | – | 114 (≈ 32 µg/mL) | > 229 | > 229 | – | – | – | – | – | – |
| C=Cc1c(C)c(O)cc2c1CCc1c-2cc(-c2cc3c(c(C)c2O)CCc2c-3cc(O)c(C)c2C=C)c(O)c1C | 60.5 (≈ 32.1 µg/mL) | 121 | – | 60.5 (≈ 32.1 µg/mL) | > 121 | > 121 | 242 | – | – | – | – | – |
| C=Cc1c(C)c(O)c(-c2cc3c(c(C)c2O)CCc2c(C=O)c(C)cc(O)c2-3)c2c1ccc1c(C)c(O)ccc12 | 60.5 (≈ 32.1 µg/mL) | – | – | 121 (≈ 64.2 µg/mL) | > 121 | > 121 | – | – | – | – | – | – |
| C=Cc1c(C)c(O)cc2c3c(ccc12)C(C)(O)C(=O)C=C3 (stereo not drawn) | 229 (≈ 64.2 µg/mL) | – | – | 229 (≈ 64.2 µg/mL) | > 458 | > 458 | – | – | – | – | – | – |
| C=Cc1c(CO)cc(O)c2c1CCc1c-2ccc(O)c1C | 114 (≈ 32 µg/mL) | 227 | – | 114 (≈ 32 µg/mL) | > 454 | > 454 | 227 | – | – | 12.3 | 12.3 | 12.3 |
| C#Cc1c(CO)c(O)cc2c1CCc1c-2ccc(O)c1C | 57.1 (≈ 16 µg/mL) | 114.3 | – | 57.1 (≈ 16 µg/mL) | > 457 | > 457 | – | – | – | 12.3 | 12.3 | 12.3 |
| C=Cc1c(COC)c(O)cc2c1CCc1c-2ccc(O)c1C | 413 (≈ 122 µg/mL) | – | – | 413 (≈ 122 µg/mL) | > 413 | > 413 | – | – | – | – | – | – |
| C=Cc1c(C)cc(O)c2c1CCc1c-2cc(-c2c(O)c(C)c(C=C)c3ccc4c(C)c(O)ccc4c23)c(O)c1C | 60.5 (≈ 32 µg/mL) | 60.5 | – | 60.5 (≈ 32 µg/mL) | > 242 | > 242 | 60.5 | – | – | 12.3 | 12.3 | 12.3 |
| CC(=O)c1c(C)c(O)cc2c1ccc1c(C)c(O)ccc12 | 457 (≈ 128 µg/mL) | – | – | 457 (≈ 128 µg/mL) | > 457 | > 457 | – | – | – | – | – | – |
| C=Cc1c(C)cc(O)c2c1CCc1c-2ccc(O)c1C | 30 (≈ 7.99 µg/mL) | 60 | – | 30 (≈ 7.99 µg/mL) | > 480 | > 480 | 60 | – | – | 12.3 | 12.3 | 12.3 |
| C#Cc1c(C)c(O)cc2c1ccc1c(C)c(O)ccc12 | 15.3 (≈ 4.01 µg/mL) | 15.3 | >488 | 15.3 (≈ 4.01 µg/mL) | > 488 | > 488 | – | – | – | – | – | – |
| C=Cc1c(C)c(Oc2c(O)c(C)c(C=C)c3ccc4c(C)c(O)ccc4c23)cc2c1ccc1c(C)c(O)ccc12 | 60.5 (≈ 31.9 µg/mL) | 121 | – | 60.5 (≈ 31.9 µg/mL) | > 121 | > 121 | – | – | – | – | – | – |
| C=CC1=C(C)C(=O)C=C2c3ccc(O)c(C)c3CC[C@@]21O | 56.8 (≈ 16 µg/mL) | 113.5 | – | 56.8 (≈ 16 µg/mL) | > 454 | > 454 | – | – | – | – | – | – |
